Measurements taken from ChEMBL document CHEMBL3352110, “Design, synthesis and in vitro evaluation of novel dehydroabietic acid derivatives containing a dipeptide moiety as potential anticancer agents” (Eur J Med Chem, 2015).

Key:
Type in all cases: functional, cell-based
NCI-H460 = experiment: Cytotoxicity against human NCI-H460 cells after 48 hrs by MTT assay; conditions: NCI-H460, 48 h
HeLa = experiment: Cytotoxicity against human HeLa cells after 48 hrs by MTT assay
[1] = Cytotoxicity against human HL7702 cells after 48 hrs by MTT assay; conditions: L02, 48 h
MGC-803 = experiment: Cytotoxicity against human MGC803 cells after 48 hrs by MTT assay; conditions: MGC-803, 48 h

Row | SMILES | IC50 (NCI-H460) [µM] | IC50 (HeLa) [µM] | IC50 [1] [µM] | IC50 (MGC-803) [µM]
1 | CC(C)c1ccc2c(c1)C(=O)C[C@H]1[C@](C)(C(=O)N[C@H](Cc3ccccc3)C(=O)Nc3ccccc3Cl)CCC[C@]21C | 50 | > 100 | 46.5 | 29.7
2 | CC(C)c1ccc2c(c1)C(=O)C[C@H]1[C@](C)(C(=O)N[C@@H](Cc3ccccc3)C(=O)Nc3ccc(Cl)cc3)CCC[C@]21C | 49.1 | 36 | 57.8 | 29
3 | CC(C)c1ccc2c(c1)C(=O)C[C@H]1[C@](C)(C(=O)N[C@@H](Cc3ccccc3)C(=O)Nc3ccccc3F)CCC[C@]21C | 57.1 | 18.9 | 47.6 | 18.9
4 | CC(C)c1ccc2c(c1)/C(=N\O)C[C@H]1[C@](C)(C(=O)N[C@@H](Cc3ccccc3)C(=O)Nc3ccc(F)cc3)CCC[C@]21C | 23.4 | 20.7 | 49.7 | 24.4
5 | CC(C)c1ccc2c(c1)/C(=N\O)C[C@H]1[C@](C)(C(=O)N[C@@H](Cc3ccccc3)C(=O)Nc3ccccc3Cl)CCC[C@]21C | 36.5 | 22.8 | 45.9 | 22.4
6 | COc1ccccc1NC(=O)[C@H](Cc1ccccc1)NC(=O)[C@]1(C)CCC[C@]2(C)c3ccc(C(C)C)cc3C(=O)C[C@@H]12 | 33.8 | 14.7 | 57.5 | 39.4
7 | COc1cc(NC(=O)[C@H](Cc2ccccc2)NC(=O)[C@]2(C)CCC[C@]3(C)c4ccc(C(C)C)cc4/C(=N\O)C[C@@H]23)cc(OC)c1OC | 36.6 | 25.9 | 49.6 | 17.5
8 | COc1ccccc1NC(=O)[C@@H](Cc1ccccc1)NC(=O)[C@]1(C)CCC[C@]2(C)c3ccc(C(C)C)cc3C(=O)C[C@@H]12 | 85.4 | 40.7 | 55.7 | 30.9
9 | COc1ccc(NC(=O)[C@H](Cc2ccccc2)NC(=O)[C@]2(C)CCC[C@]3(C)c4ccc(C(C)C)cc4C(=O)C[C@@H]23)cc1 | > 100 | 52.3 | 59.6 | 49
10 | COc1cc(NC(=O)[C@@H](Cc2ccccc2)NC(=O)[C@]2(C)CCC[C@]3(C)c4ccc(C(C)C)cc4/C(=N\O)C[C@@H]23)cc(OC)c1OC | 36.1 | 32 | 56.2 | 15.6
11 | COc1ccc(NC(=O)[C@@H](Cc2ccccc2)NC(=O)[C@]2(C)CCC[C@]3(C)c4ccc(C(C)C)cc4C(=O)C[C@@H]23)cc1 | 34.3 | 16.3 | 55.4 | 39.6
12 | CC(C)c1ccc2c(c1)C(=O)C[C@H]1[C@](C)(C(=O)N[C@@H](Cc3ccccc3)C(=O)Nc3ccc(F)cc3)CCC[C@]21C | 61.6 | 63.5 | 66.5 | 20.1
13 | COc1ccc(NC(=O)[C@@H](Cc2ccccc2)NC(=O)[C@]2(C)CCC[C@]3(C)c4ccc(C(C)C)cc4/C(=N\O)C[C@@H]23)cc1 | 20.4 | 17.3 | 56.2 | 15
14 | CC(C)c1ccc2c(c1)C(=O)C[C@H]1[C@](C)(C(=O)N[C@H](Cc3ccccc3)C(=O)Nc3ccccc3)CCC[C@]21C | 51.9 | 57.8 | 53.3 | 30.5
